Laboratory results reported in patent US20110015120A1, “Pharmaceutical and cosmetic compositions including lactoferrin, ciclopirox, etidronic acid” (VALETUDO S . r . l ., priority 2009, published 2011).
Values joined by “and” are separate entries in the source; they are usually repeats but may differ in a detail not shown here. Equal values may be shown once. “Also recorded” adds a separate entry of the source.

Test system: MALASSEZIA GLOBOSA
Test: Inhibition of Malassezia globosa growth, colony count (UFC/ml) on Dixon's Agar
Type: cell-based
Conditions: for dil 10X colony count: 200 μl of suspension diluted 10X on Petri dish; for dil 10X colony count / X50 (calculation made based on the dilution): three replicates; for AVERAGE: average of three replicates; for % reduction of Malassezia globosa cells growth (% increase of antimycotic activity): compared to CICLOPIROXOLAMINE alone; for X50 (calculation made based on the dilution): dil 10X count x50
Description: To assess the capacity of the LACTOFERRIN to enhance the antimycotic action of the CIPROPIROXOLAMIN, a suspension of a MALASSEZIA GLOBOSA STRAIN is inoculated on a specific culture medium and the capacity of the compounds to inhibit the mycotic growth is observed, by counting of the UFC/ml.
As first approach, the two compounds are tested at the concentration of 1:500 and, subsequently, diluted in culture medium at 2 decreasing concentrations (10× and 100×) in order to visualize the individual activities. Then in order to evaluate the capacity of the LACTOFERRIN to increase the antimycotic effect of the CICLOPIROXOLAMIN, the same test was carried out on the mix of the two active ingredients at different ratios (1:2 and 1:5).
Each test was performed three times and the incubation times were 1 and 4 hours respectively.
Based on the results obtained, the best dilution for the execution of the tests was the 10× dilution and both the incubation times (1 hour and 4 hours) were taken into consideration since the experimental conditions permitted an accurate count to be carried out of the colonies on the Petri dishes.
The microorganism used is MALASSEZIA GLOBOSA.
The microorganisms were cultured in specific culture medium (Dixon's Agar) until reaching a concentration of approximately […] per ml. Aliquots of 1 ml of this inoculum were then taken to which were added respectively: • Ciclopiroxolamine 1:500 • Lactoferrin 1:500 • Mixture 1:2 Ciclopiroxolamine:lactoferrin • Mixture 1:5 Ciclopiroxolamine:lactoferrin
As positive control, the untreated inoculum was used (MALASSEZIA and diluting liquid), as negative controls the two active ingredients in diluting liquid.
After incubations of 1 hour and 4 hours respectively, aliquots of 200 μl of each suspension were spread on Petri dishes.
For each treatment, the test was carried out three times and for 3 different dilutions (non diluted suspension (TQ), dilution 10× and dilution 100×).
The 54 dishes obtained were then examined, after incubation of 5-6 days and the microbial load of each specimen was calculated (UFC/ml).
The % increase of the antimycotic property corresponds to the % reduction of the growth of Malassezia Globosa

**Q.** For `Cc1cc(C2CCCCC2)n(O)c(=O)c1` [CICLOPIROXOLAMINE, Ciclopirox Olamine], which “reduction in the growth of Malassezia Globosa (in words)” value (after four hours of incubation) is on record?
**A.** Its value is “marked reduction”.

**Q.** What about the “reduction in the growth of Malassezia Globosa (in words)” value (after one hour of incubation) of the same molecule?
**A.** The value was “marked reduction”.

**Q.** What about the “antimycotic activity towards Malassezia Globosa (in words)” value (overall statement) of the same molecule?
**A.** Its value is “decidedly more effective in reducing the growth compared to the LACTOFERRIN; also recorded: marked antimycotic activity”.

**Q.** What about the “Log (AVERAGE)” value (period of incubation 1 hour) of the same molecule?
**A.** Its value is 3.985.

**Q.** And the “dil 10X colony count” value (period of incubation 1 hour)?
**A.** Its value is 208 and 170 and 202.

**Q.** And the AVERAGE (period of incubation 1 hour)?
**A.** The AVERAGE was 9666.667 UFC/ml.

**Q.** What about the “% reduction of Malassezia globosa cells growth (% increase of antimycotic activity)” value (period of incubation 1 hour) of the same molecule?
**A.** Its value is 0%.

**Q.** And the “X50 (calculation made based on the dilution)” value (period of incubation 1 hour)?
**A.** Its value is 10400 UFC/ml and 8500 UFC/ml and 10100 UFC/ml.

**Q.** What about the “Log (AVERAGE)” value (period of incubation 4 hour) of the same molecule?
**A.** The value was 3.209.

**Q.** And the “dil 10X colony count” value (period of incubation 4 hour)?
**A.** The value was 38 and 34 and 25.

**Q.** And the AVERAGE (period of incubation 4 hour)?
**A.** The AVERAGE was 1616.667 UFC/ml.

**Q.** What about the “% reduction of Malassezia globosa cells growth (% increase of antimycotic activity)” value (period of incubation 4 hour) of the same molecule?
**A.** Its value is 0%.

**Q.** And the “X50 (calculation made based on the dilution)” value (period of incubation 4 hour)?
**A.** The value was 1900 UFC/ml and 1700 UFC/ml and 1250 UFC/ml.
